The structures appear in SMILES notation.

The subject of this test is doxorubicin resistant sub line RPMI8226Dox40. Kind of test: Single cell seeding and cultivation in microplate with doxorubicin-spiked growth medium (drug resistance screening), resistant cells. The class given is cell-based, human. Conditions: 6 days of incubation, resistant vs sensitive cells. The method, then: The clean plates and semi-permeable top membranes were autoclaved for 20 min at 121° C. to obtain a sterile cell culture environment. An excess of recommended growth medium was added to the plate, and manually distributed evenly to all wells by an autoclaved hand scraper (VWR) or sterile cell scrapers (Falcon, for one-time use only). Then, automatic single cell seeding into predefined wells of the microplate was carried out using the FACS. A motorized x/y-stage combined with the software CloneCyt Plus (BD Biosciences) was used to control the exact position of every cell sorted in the plate. Selection of the cells to be seeded was performed based on their individual FSC/SSC (forward scatter/side scatter) properties (i.e. size and granularity). The cells were analyzed at a rate of approximately 100 cells/s. A representative set of cells was sought, meaning that all viable cells in the sample were selected for seeding into the plate. The cells were sorted directly from recommended growth medium in concentrations ranging from 10^5-10^6 cells/ml. FACS Clean solution (BD Biosciences) was let through the fluidics of the FACS prior to experiments to obtain sterility. The x/y-stage and the surrounding of the fluidics outlet was cleaned with 70% EtOH. During analysis, sterile 0.25×PBS was used as sheath buffer. […]

As to `COc1cccc2c1C(=O)c1c(O)c3c(c(O)c1C2=O)C[C@@](O)(C(=O)CO)C[C@@H]3O[C@H]1C[C@H](N)[C@H](O)[C@H](C)O1` [Doxorubicin, doxorubicin], the “Proliferation at higher drug concentrations” value was “only resistant cells can proliferate at higher drug concentrations”.

Values taken from US20090061513A1, “Cell sorting and cell cultivation methods” (PicoVitro AB, priority 2007, published 2009).
